From patent US3972991A, “Radioisotopic assay and binder therefor” (priority 1974, dated 1976)
Structures can show the parent of a compound that is named as a salt.

Tests used:
hog kidney binder = test: direct binding studies with labeled folates on hog kidney binder
hog kidney binder factor [1] = test: effect of enzymes, pH, ions, chelators, denaturants and other agents on binding of 3H-PGA to hog kidney binder; settings: for effect on binding activity of the binder composition: before complex formation
hog kidney binder factor [2] = test: rate of PGA binder complex formation and dissociation; format: binding; settings: for initial rate of binding: 3H-PGA approximately 20% excess
Description: The rate of PGA binder complex formation with hog kidney binder factor was determined at several temperatures by equilibrating solutions of the binder and of ^3 H-PGA at the appropriate temperature and then combining aliquots of each such that the ^3 H-PGA was in approximately 20% excess to the binding capacity of the hot kidney binder factor composition. The reaction was terminated by the addition of 1.0 ml of ice cold suspension of powdered activated charcoal coated with albumin.

storage stability = format: physicochemical
Description: The standard or known folate (d,1,L-5-methyltetrahydrofolic acid) (Sigma Chemical) is dissolved in 0.05 M potassium phosphate buffer pH 7.6 and then brought to 0.1 M with 2-mercapto-ethanol. Here the mercapto-alcohol acts as a stabilizer for the folate or folic acid.
High specific activity ^3 H-PGA (15-50 Ci/m mole; Amersham Searle) is conveniently utilized as the tracer or labeled compound. It is dissolved in 20% ethanol and stored at -80°C. For use in the assay, the stock solution is diluted 1:100 in potassium phosphate buffer (0.05 M pH 7.6).
Finely divided activated charcoal coated with albumin is prepared by mixing equal volumes of a 5% powdered activated charcoal (Norit A) suspension (w/v, in distilled water) and a 1% aqueous solution of bovine albumin (Fraction V of Cohn).
Blood to be assayed for folate is obtained by venapuncture and allowed to clot at room temperature. The serum is collected by centrifugation and 5 milligrams of ascorbic acid per milliliter of serum is added.

hog kidney folate binder = test: direct competition for PGA binding sites in hog kidney folate binder (FIG. 6A)
Description: The reaction was started by addition of folate binder and allowed to proceed for 30 minutes at room temperature in the dark. The reaction was stopped by placing the tubes on ice and adding 1.0 ml of a suspension of powdered activated charcoal coated with albumin. After 2 to 3 minutes on ice, the tubes were centrifuged at 6000 × G for 10 minutes at 4°C to remove the charcoal absorbed "free" folate. 1.0 ml of the clear supernatant fluid which contained the folate/binder complex was counted by liquid scintillation spectroscopy according to known procedures. Charcoal controls prepared by substituting buffer for binder in one series of tubes were prepared to determine the number of counts not removed by the charcoal. Percent maximum binding was calculated by the formula [formula]

hog kidney binder factor [3] = test: sequential addition of unlabeled folate derivatives and 3H-PGA, displacement (FIG. 6B); format: binding; settings: PGA curve of FIG. 6B
Description: The binding conditions were similar to those used in obtaining the data appearing in FIG. 6A except that 3 pmoles of ^3 H-PGA was added to the reaction containing enough binder factor to bind about 2.5 pmoles of PGA. The binder was preincubated for 30 minutes in the dark at room temperature with unlabeled folate derivatives as indicated. Then the ^3 H-PGA was added and the reaction allowed to continue for an additional 30 minutes and then stopped and counted as in obtaining the data for FIG. 6A.
The calculated curve of FIG. 6B depicts the relationship to be expected by balancing on a molar basis the binding capacity of the hog kidney binder factor with the known pmoles of folate analog added in the absence of any displacement. […] The hog kidney binder factor thus differs from other high affinity folate binder factors such as those found in milk and in serum and in leukocytes of some patients with chronic granulocytic leukemia.

All other binder factors = test: inactivation of other binder factors by trypsin; format: binding; settings: trypsin solution 1:250, 1 mg/ml
Description: Preincubating a 1.0 ml aliquot of binder extract from hog kidney having a binding capacity of 25 ng PGA/ml, with 1.0 ml RNase (Worthington, 2 micrograms per ml) or with DNase I (Worthington 2 micrograms per ml) for 30 minutes at 37°C had no effect on the binding of ^3 H-PGA. […] All other binder factors are inactivated by a trypsin solution 1:250, 1 mg/ml.

Which “binding affinity less than that of 3H-PGA” value (hog kidney binder; direct binding, 3H-MTX 13 Ci/mmole) does the source give for `CN(Cc1cnc2nc(N)nc(N)c2n1)c1ccc(C(=O)N[C@@H](CCC(=O)O)C(=O)O)cc1` [^3 H-MTX, ^3 H-methotrexate] here?
Its value is “at least 500 times”.

For `c1cnc2c(c1)ccc1cccnc12` [o-phenanthroline], which “effect on the binding reaction” value (hog kidney binder factor [1]; concentrations up to 2.0 × 10^-^6 M) is on record?
The value was “no effect”.

For `[Zn]` [zinc], which “effect on binding at any pH” value (hog kidney binder factor [1]; 5 mM) is on record?
The value was “No effect”.

With `O=C(O)CN(CCN(CC(=O)O)CC(=O)O)CC(=O)O` [EDTA, ethyldiamine tetraacetic acid] as the molecule, how does the “effect on binding at any pH” value (hog kidney binder factor [1]; 20 mM) read?
The value was “No effect”.

Which “initial rate of binding” value (hog kidney binder factor [2]; 4°C) does the source give for ^3 H-pteroylmonoglutamate [^3 H-PGA] here?
Its value is “about 0.65 % per second”.

What about the “initial rate of binding” value (hog kidney binder factor [2]; 21°C) of the same molecule?
Its value is 1.3 % per second.

And the “initial rate of binding” value (hog kidney binder factor [2]; 37°C)?
Its value is 2.5 % per second.

What about the “disassociation of the 3H-PGA binder complex” value (hog kidney binder factor [2]; one hour at 37°C, 50-fold excess of unlabeled PGA) of the same molecule?
The value was “no significant disassociation”.

And the stability (storage stability)?
Its stability is “unstable”.

Which “effect on folate binder complex after it had formed” value (hog kidney binder factor [1]; 8 M) does the source give for `NC(N)=O` [urea] here?
The value was “no effect”.

And the “effect on binding activity of the binder composition” value (hog kidney binder factor [1]; 8 M)?
Its value is “binding activity was lost”.

For `OCCS` [2-mercaptoethanol], which “effect on the binding reaction” value (hog kidney binder factor [1]; concentrations of 10^-^7 to 10^-^1 M) is on record?
The value was “no effect”.

Which “effect on binding at any pH” value (hog kidney binder factor [1]; 5 mM) does the source give for `[Ca+2]` [calcium] here?
The value was “No effect”.

For `Nc1nc2c(c(=O)[nH]1)NC(CN(C=O)c1ccc(C(=O)N[C@@H](CCC(=O)O)C(=O)O)cc1)CN2` (stereo partly shown) [N-10, formyltetrahydrofolic acid], which “competition for PGA binding sites” value (hog kidney folate binder) is on record?
Its value is “high degree of competition”.

With `O=C(O)CC(O)(CC(=O)O)C(=O)O` [citrate] as the molecule, how does the “effect on binding at any pH” value (hog kidney binder factor [1]; 10 mM) read?
Its value is “No effect”.

Which “competition for PGA binding sites” value (hog kidney folate binder) does the source give for `Nc1nc2c(c(=O)[nH]1)NC(CNc1ccc(C(=O)N[C@@H](CCC(=O)O)C(=O)O)cc1)CN2` (stereo partly shown) [d, 1-tetrahydrofolic acid] here?
The value was “high degree of competition”.

With `[14CH3]N1c2c([nH]c(N)nc2=O)NCC1CNc1ccc(C(=O)N[C@@H](CCC(=O)O)C(=O)O)cc1` (stereo partly shown) [^14 C--5CH3 FH4] as the molecule, how does the “binding results compared with those obtained with 3H-PGA” value (hog kidney binder) read?
Its value is “essentially the same”.

What about the “bound by the extract, of the available labeled folate” value (hog kidney binder) of the same molecule?
Its value is “more than 90%”.

Which “effect on binding at any pH” value (hog kidney binder factor [1]; 5 mM) does the source give for `[Mg+2]` [magnesium] here?
Its value is “No effect”.

Which results are given for `CN1c2c(nc(N)[nH]c2=O)NCC1CNc1ccc(C(=O)N[C@@H](CCC(=O)O)C(=O)O)cc1` (stereo partly shown) [5CH3 FH4, d,1,5-methyltetrahydrofolic acid]?
tightness of binding of the hog kidney binder factor with PGA and 5CH3 FH4 (hog kidney binder factor [3]): approximately equal; amount required to achieve 50% inhibition of 3H-PGA binding (hog kidney folate binder; FIG. 6A, 0.225 pmoles 3H-PGA, pH 7.6, total volume 1.0 ml, 30 min room temperature): about 0.32 pmoles; stability of stock solution (storage stability; approximately 5 micrograms per ml, 0.1 M 2-mercaptoethanol, pH 7.6, -80°C): at least 6 months

For `N=C(N)N` [guanidine hydrochloride], which “effect on folate binder complex after it had formed” value (hog kidney binder factor [1]; 6 M) is on record?
Its value is “could disrupt the complex”.

What about the “reversibility of the guanidine hydrochloride effect” value (hog kidney binder factor [1]; 6 M) of the same molecule?
Its value is “nearly completely reversible”.

And the “effect on binding activity of the binder composition” value (hog kidney binder factor [1]; 6 M)?
Its value is “binding activity was lost”.

B1: RNase: RNase (Worthington) (protein, UniProt P61823 27-150, looked up)
Ribonuclease pancreatic: KETAAAKFERQHMDSSTSAASSSNYCNQMMKSRNLTKDRCKPVNTFVHESLADVQAVCSQKNVACKNGQTNCYQSYSTMSITDCRETGSSKYPNCAYKTTQANKHIIVACEGNPYVPVHFDASV
Which “effect of preincubation on binding of 3H-PGA” value (hog kidney binder factor [1]; 2 micrograms per ml, 30 minutes at 37°C) does the source give for B1 here?
Its value is “no effect”.

B2: trypsin: solution of trypsin (protein, UniProt P00760 24-246, looked up)
Serine protease 1: IVGGYTCGANTVPYQVSLNSGYHFCGGSLINSQWVVSAAHCYKSGIQVRLGEDNINVVEGNEQFISASKSIVHPSYNSNTLNNDIMLIKLKSAASLNSRVASISLPTSCASAGTQCLISGWGNTKSSGTSYPDVLKCLKAPILSDSSCKSAYPGQITSNMFCAGYLEGGKDSCQGDSGGPVVCSGKLQGIVSWGSGCAQKNKPGVYTKVCNYVSWIKQTIASN
Which results are given for B2?
effect of preincubation with trypsin on hog binder factor (hog kidney binder factor [1]; 1.0 ml trypsin solution, 30 minutes): completely inactivated; inactivation of other binder factors by trypsin (All other binder factors): inactivated
